Where a name gives a salt, the structure may show the parent alone. Read-outs that look alike come from different tables or passages of the source.
Experiments:
Na+ channels = assay: 22Na+ influx into SK-N-SH neuroblastoma cells under veratridine stimulation; assay type: cell-based
[1] = test system: Chronic Hyperalgesia Induced by PGE2 in Rats; assay: Analgesic activity on chronic hyperalgesia induced by PGE2 in rats (Randall and Selitto test); assay type: in vivo; details: Rattus norvegicus, sc, 0.5 h; Sprague-Dawley rats, 10 mg/kg s.c., 30 min before measuring the pain threshold, compared with vehicle controls
Method: Analgesic Activity on Chronic Hyperalgesia Induced by PGE2 in Rats
The test consists in determining the analgesic effect of the test compound in rats by the Randall and Selitto test, in which chronic hyperalgesia has been triggered by intraplantar injection of PGE2 over 4 days into a leg, according to a protocol adapted from Nakamura-Craig et al (Pain, 63: 33-37. 1995).
The study is carried out on batches of 120-140 g Sprague-Dawley rats to which 100 ng of PGE2 is administered in a volume of 100 μl by the intraplantar route, for 4 consecutive days twice a day; this causes chronic hyperalgesia in the leg from the 5th day, for at least one week. On the day of the test, in the morning, the threshold of reaction to pain is checked by the Randall and Selitto test, and animals whose threshold is ψ100 arbitrarily defined units are selected. In the afternoon, the measurement is repeated after prior administration by the s.c. route of a solution of the test compound; this administration is carried out 30 min before measuring the pain threshold. For each batch, the analgesic activity (%) is calculated from the means of the thresholds measured before and after treatment, as compared with that of the control animals, who received only the vehicle.

Na+ channel = details: rat cerebral cortex synaptosomes, 10 nM [3H]batrachotoxin, 90 min at 25° C.; read-out: [3H] BTX assay: Na+ channel binding Ki
[2] = human SK-N-SH cells, veratridine-induced influx, 10 min at 37° C.; read-out: 22Na influx IC50

SMILES	melting point	IC50 (Na+ channels; [2])	inhibition in vivo at 10 mg/kg [1]	also measured
O=C1c2ccccc2CCC12CCNCC2 (as salt: hydrochloride)	235 °C			
O=C1c2ccccc2CCC12CCN(CCc1ccccc1)CC2 (as salt: hydrochloride)	> 275 °C			
O=C1c2ccccc2CCC12CCN(CC1CC1)CC2 (as salt: hydrochloride) [Example 2, 1′-cyclopropylmethyl-3,4-Dihydro-1-oxospiro[naphthalene-2(1H),4′-piperidine]]	243 °C			
O=C1c2ccccc2CCC12CCN(CC1CCC1)CC2 (as salt: hydrochloride) [Example 3, 1′-cyclobutylmethyl-3,4-Dihydro-1-oxospiro[naphthalene-2(1H),4′-piperidine]]	235 °C			
O=C1c2ccccc2CCC12CCN(CC1CCCCC1)CC2 (as salt: hydrochloride) [Example 4, 1′-cyclohexylmethyl-3,4-Dihydro-1-oxospiro[naphthalene-2(1H),4′-piperidine]]	265 °C			
O=C1c2ccccc2CCC12CCN(CCC1CC1)CC2 (as salt: hydrochloride) [Example 6, 1′-cyclopropylethyl-3,4-Dihydro-1-oxospiro[naphthalene-2(1H),4′-piperidine]]	244 °C			
O=C1c2ccccc2CCC12CCN(C/C=C/c1ccccc1)CC2 (as salt: hydrochloride) [Example 7, 1′-cinnamyl-3,4-Dihydro-1-oxospiro[naphthalene-2(1H),4′-piperidine]]	228 °C			
O=C1c2ccccc2CCC12CCN(CCC(c1ccccc1)c1ccccc1)CC2 (as salt: hydrochloride) [Example 8, 1′-(3,3-diphenylpropyl)-3,4-Dihydro-1-oxospiro[naphthalene-2(11H),4′-piperidine]]	257 °C			
Cc1cc(C)c2c(c1)C(=O)C1(CC2)CCN(CC2CC2)CC1 (as salt: hydrochloride) [Example 9, 1′-(cyclopropylmethyl)-3,4-Dihydro-5,7-dimethyl-1-oxospiro[naphthalene-2(1H),4′-piperidine]]	> 260 °C			
COc1ccc2c(c1)CCC1(CCN(CC3CC3)CC1)C2=O (as salt: hydrochloride) [Example 10, 1′-(cyclopropylmethyl)-3,4-Dihydro-6-methoxy-1-oxospiro[naphthalene-2(1H),4′-piperidine]]	> 255 °C			
COc1cccc2c1CCC1(CCN(CC3CC3)CC1)C2=O (as salt: hydrochloride) [Example 11, 1′-(cyclopropylmethyl)-3,4-Dihydro-5-methoxy-1-oxospiro[naphthalene-2(1H),4′-piperidine]]	244 °C			
O=C1c2ccccc2CCC12CCN(CC1CC1)CC2 [Example 2, 1′-cyclopropylmethyl-3,4-Dihydro-1-oxospiro[naphthalene-2(1H),4′-piperidine]]		10700 nM	49%	
O=C1c2ccccc2CCC12CCN(CCC1CC1)CC2 [Example 6, 1′-cyclopropylethyl-3,4-Dihydro-1-oxospiro[naphthalene-2(1H),4′-piperidine]]		3400 nM	67%	
O=C1c2ccccc2CCC12CCN(C/C=C/c1ccccc1)CC2 [Example 7, 1′-cinnamyl-3,4-Dihydro-1-oxospiro[naphthalene-2(1H),4′-piperidine]]		940 nM	57%	
O=C1c2ccccc2CCC12CCN(CCC(c1ccccc1)c1ccccc1)CC2 [Example 8, 1′-(3,3-diphenylpropyl)-3,4-Dihydro-1-oxospiro[naphthalene-2(11H),4′-piperidine]]		970 nM	47%	
COc1ccc2c(c1)CCC1(CCN(CC3CC3)CC1)C2=O [Example 10, 1′-(cyclopropylmethyl)-3,4-Dihydro-6-methoxy-1-oxospiro[naphthalene-2(1H),4′-piperidine]]		30000 nM	100%	
O=C1c2ccccc2CCC12CCN(CCCc1ccccc1)CC2 [Example 33]			81%	Ki (Na+ channel): 291 nM; IC50 (Na+ channels; read-out: 22Na influx IC50; human SK-N-SH cells, veratridine-induced influx, 10 min at 37° C.): 1200 nM
COc1cccc2c1CCC1(CCN(CC3CCC3)CC1)C2=O [Example 36]		3400 nM	51%	Ki (Na+ channel): 475 nM
COc1ccc2c(c1)CCC1(CCN(CCC3CC3)CC1)C2=O [Example 42]		4300 nM	46%	
COc1ccc2c(c1)CCC1(CCN(CC3CCC3)CC1)C2=O [Example 43]		6000 nM	39%	
COc1ccc2c(c1)CCC1(CCN(CCCc3ccccc3)CC1)C2=O [Example 47]		600 nM	66%	
COc1ccc2c(c1)C(=O)C1(CC2)CCN(CCC2CC2)CC1 [Example 49]		7600 nM	38%	Ki (Na+ channel): 2180 nM
COc1ccc2c(c1)CCC1(CCNCC1)C2=O [Example 70, 3.4-Dihydro-6-methoxy-1-oxospiro[naphthalene-2(1H),4′-piperidine]]			46%	
